The results in this text go back to US20070009509A1, “Antibody against nox1 polypeptide, method of diagnosing cancer with the use of nox1 gene and method of screening cancer growth inhibitor” (priority 2003, published 2007).

One test has as its system K-Ras-NRK cells. The experiment in a line: Morphology of K-Ras-NRK cells treated overnight with inhibitors. It counts as cell-based, rat. Particulars: 20 μM DPI, 30 μM PD98059, 10 mM n-acetyl cysteine (data not shown), FIG. 13. As to the method: Diphenylene iodonium (DPI), a Nox1 inhibitor, was used to examine the influence of Nox1 gene expression on the morphologies of the cells transformed with mutant Ras. Namely, K-Ras-NRK cells and NRK cells were cultured overnight at 37° C. in a medium containing 20 μM DPI or 30 μM PD98059 under a 5% CO2-containing moisture environment to observe morphological changes.

Test [1] relates to superoxide production in K-Ras-NRK cells. The experiment in a line: Superoxide production by NBT reduction analysis. It is filed as cell-based, rat. Particulars: 40 units of superoxide dismutase, 37° C., 8 minutes. How it is done: The present inventors measured superoxide production by NBT reduction analysis using the transformed cells of Example 4 in order to evaluate the role of Nox1 in superoxide production induced by mutant Ras. In the present example, the method of Suh et al. was used in the NBT (nitroblue tetrazolium) analysis (1). Namely, 0.2 ml of a Hanks solution containing 0.25% NBT was prepared with or without 40 units of superoxide dismutase (SOD), a reactive oxygen-digesting enzyme, in which 2×10^5 cells were in turn suspended and treated at 37° C. for 8 minutes. The treated cells were separated by low-speed centrifugation and solubilized by the addition of 0.5 ml of pyridine. Absorbance at 510 nm was measured to quantify a decrease in NBT (extinction coefficient of 11,000/M/cm). The obtained data was shown in FIG. 6 with +/−s.e.m. from 3 measurements.

Test [2] concerns Nox1 gene expression in NIH3T3 cells. As to the kind of experiment: Serum- and EGF-induced Nox1 expression in NIH3T3 cells by real-time quantitative polymerase chain reaction. It counts as cell-based. How it is done:
NIH3T3 cells cultured overnight under serum-free conditions were treated mitogeniclally with serum (30%) or 50 ng/ml epidermal growth factor (EGF) and then analyzed by real-time quantitative polymerase chain reaction. As a result, Nox1 gene expression was increased to 6 to 20 times within 12 hours from the initiation of the culture, as shown in FIGS. 1(c) and (d). That is, Nox1 gene expression is associated with factors that promote cell growth. This is consistent with the reports saying that both platelet-derived growth factor (PDGF) and angiotensin II induce superoxide formation and Nox1 gene expression in vascular smooth muscle cells (1 and 4).
(§1) A series of experiments were performed for analyzing the downstream region of a Ras signaling pathway of Nox1 gene expression elevated by mutant Ras gene. In Examples 1 and 2, the cells were treated for 12 hours with PD98059 (PD: 20 μM, 100 μM), an MAPKK inhibitor, to analyze Nox1 expression in the K-Ras-NRK cells and serum- and EGF-induced Nox1 expression by real-time quantitative polymerase chain reaction.

For test [3], the system named is Nox1 expression in the K-Ras-NRK cells. The experiment in a line: Nox1 expression in K-Ras-NRK cells by real-time quantitative polymerase chain reaction. It is filed as cell-based, rat. Particulars: PD98059 20 μM, 100 μM, treated for 12 hours; FIG. 1(a). How it is done:
At first, rat kidney (NRK) cells and K-Ras-NRK cells (Kirstein murine sarcoma virus-transformed NRK cells) were prepared. The K-Ras-NRK cells were purchased from ATCC.
The presence or absence of Nox1 expression in the rat kidney (NRK) cells and the K-Ras-NRK cells was initially detected by real-time quantitative polymerase chain reaction. The real-time quantitative polymerase chain reaction used a forward primer of SEQ ID NO: 15, a reverse primer of SEQ ID NO: 16, and a TaqMan MGB probe of SEQ ID NO: 17.
The real-time quantitative polymerase chain reaction was performed using ABI Prism 7700 (Applied Biosystems) under reaction conditions set to defaults. Analytical values were standardized using rRNA 18S.
as §1

Test [4] concerns Nox1 expression in the H-Ras-NIH3T3 cells. As to the kind of experiment: Control experiment: Nox1 expression in H-Ras-NIH3T3 cells. It counts as cell-based. Particulars: wortmannin 100 nM; data not shown.

`c1ccc2c(c1)[I+]c1ccccc1-2` [DPI, Diphenylene iodonium]: in the test on K-Ras-NRK cells, the “morphological changes of K-Ras-NRK cells” value is “transiently assumed a flat shape that was close to the shape of the NRK cells”.
Regarding superoxide dismutase, the “NBT reduction increased in K-Ras-NRK and K-Ras-NRK/neg-1” value in test [1] was “inhibited”.
For the molecule `COc1cccc(-c2cc(=O)c3ccccc3o2)c1N` [PD98059], in test [2] (20 μM PD98059, 50 ng/ml EGF, FIG. 1(d)), the “EGF-induced Nox1 expression” value is on record as “inhibited”. Moreover, the “serum-induced Nox1 expression” value in test [2] (20 μM PD98059, serum (30%), FIG. 1(c)) was “inhibited”. The “Nox1 expression in the K-Ras-NRK cells” value in test [3] is given as “inhibited by the PD98059 concentration-dependently”. Besides, the “morphological changes of K-Ras-NRK cells” value in the test on K-Ras-NRK cells is recorded as “such morphological changes were also observed”.
`COC[C@H]1OC(=O)c2coc3c2[C@@]1(C)C1=C(C3=O)[C@@H]2CCC(=O)[C@@]2(C)C[C@H]1OC(C)=O` [wortmannin]: the “increase in Nox1 expression in the H-Ras-NIH3T3 cells” value in test [4] is given as “did not inhibit”.
With `CC(=O)N[C@@H](CS)C(=O)O` [n-acetyl cysteine], the “morphological changes of K-Ras-NRK cells” value with K-Ras-NRK cells is given as “transiently assumed a flat shape that was close to the shape of the NRK cells”.
